The text below walks through data of PubChem BioAssay (NCI).

Among the test systems are 786-0 renal; SNB-78 CNS; SK-MEL-28 melanoma; OVCAR-8 ovarian; SNB-75 CNS; HOP-92 NSCLC; MOLT-4 leukemia; IGROV1 ovarian; KM20L2 colon; DU-145 prostate.
Assay in all cases: NCI-60 cell line screen, 48 h

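Exposure lasted 48 hours, with cells grown in 96-well plates and compounds tested at five concentrations. GI50 = concentration required for 50% inhibition of growth. Definition used: TGI = concentration required for complete inhibition of growth.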 A value given as a limit tells only on which side of the number the result lay.

Turning to `CCC1(c2c(F)c(F)c(N)c(F)c2F)CCC(=O)NC1=O` (stereo not given), the TGI in the assay with 786-0 renal, with SNB-78 CNS, with SK-MEL-28 melanoma, with OVCAR-8 ovarian, in the assay on SNB-75 CNS and with HOP-92 NSCLC was more than 100 µM throughout. The TGI in the assay on MOLT-4 leukemia and in the assay with IGROV1 ovarian was more than 100 µM throughout.
Consider `N#CC(C(=O)/C(=N/N)C(C#N)c1ccccc1)c1ccccc1` (stereo not given), for which the TGI in the assay with 786-0 renal, in the assay on SNB-78 CNS, with SK-MEL-28 melanoma, in the assay on OVCAR-8 ovarian, in the assay with HOP-92 NSCLC and in the assay on MOLT-4 leukemia was more than 100 µM in each case. Also, the TGI in the assay with IGROV1 ovarian is more than 100 µM.
Regarding `CCOC(=O)N1CCc2cc(OC)c(OC)c3c2c1cc1cc(OC)c(OC)cc13`, the TGI was more than 100 µM in the assay on 786-0 renal; more than 100 µM in the assay with SNB-78 CNS; 7.16 µM in the assay with KM20L2 colon; more than 100 µM in the assay on SK-MEL-28 melanoma; more than 100 µM in the assay with OVCAR-8 ovarian; 8.4 µM with SNB-75 CNS. The TGI in the assay with HOP-92 NSCLC was 44.8 µM; with DU-145 prostate, more than 100 µM; in the assay on MOLT-4 leukemia, more than 100 µM; in the assay with IGROV1 ovarian, more than 100 µM.
Take `Cc1ccccc1C(=O)c1ccccc1O`: the TGI in the assay with 786-0 renal, in the assay on SNB-78 CNS, in the assay on KM20L2 colon, in the assay on SK-MEL-28 melanoma, in the assay on OVCAR-8 ovarian and in the assay on SNB-75 CNS was more than 100 µM throughout. Besides, the TGI in the assay on HOP-92 NSCLC, in the assay on MOLT-4 leukemia and in the assay on IGROV1 ovarian was more than 100 µM in each case.
Turning to `N/C(=C\c1ccc(OCc2ccccc2)c(OCc2ccccc2)c1[N+](=O)[O-])C(=O)O`, the TGI in the assay on 786-0 renal, in the assay with SNB-78 CNS, in the assay on KM20L2 colon, in the assay with SK-MEL-28 melanoma, in the assay with OVCAR-8 ovarian and in the assay with SNB-75 CNS was more than 100 µM in each case. Moreover, the TGI in the assay with HOP-92 NSCLC, in the assay with MOLT-4 leukemia and in the assay on IGROV1 ovarian was more than 100 µM in each case.
For `Clc1cc(Cc2cc(Cl)c(Cl)c3c2OCOC3)c2c(c1Cl)COCO2`, the TGI was 62.4 µM in the assay on 786-0 renal; more than 100 µM with SNB-78 CNS; more than 100 µM in the assay with KM20L2 colon; more than 100 µM in the assay on SK-MEL-28 melanoma; more than 100 µM in the assay with OVCAR-8 ovarian; 52.3 µM in the assay on SNB-75 CNS. In addition, the values for the TGI in the assay with HOP-92 NSCLC, with MOLT-4 leukemia and with IGROV1 ovarian were 41.8 µM, more than 100 µM and more than 100 µM, respectively.
On to `N[C@@H]1CCCC[C@H]1N.O=C([O-])C(=O)[O-].[Pt+4]`, for which the GI50 in the assay on 786-0 renal is 0.752 µM; in the assay with SNB-78 CNS, 19.8 µM; in the assay on KM20L2 colon it was 0.263 µM; in the assay with SK-MEL-28 melanoma it was 2.63 µM; in the assay on OVCAR-8 ovarian, 6 µM; with SNB-75 CNS it was 18.5 µM. The GI50 with HOP-92 NSCLC was 25.5 µM; with DU-145 prostate, 6.17 µM; in the assay on MOLT-4 leukemia, 0.137 µM; with IGROV1 ovarian, 1.85 µM. In addition, the TGI with 786-0 renal is 42.9 µM; with SNB-78 CNS, more than 100 µM; in the assay on KM20L2 colon it was 24.2 µM; with SK-MEL-28 melanoma it was 24.2 µM; in the assay on OVCAR-8 ovarian, more than 100 µM; in the assay with SNB-75 CNS it was more than 100 µM. Besides, the TGI in the assay with HOP-92 NSCLC was more than 74 µM; in the assay with DU-145 prostate, more than 100 µM; in the assay with MOLT-4 leukemia, 15.6 µM; in the assay with IGROV1 ovarian, 35.9 µM.
For `CCC/C(=N/NC(=O)C(N)=O)C(CC)C(=O)CCC(=O)N(Cc1ccccc1)Cc1ccccc1` (stereo not given), the TGI in the assay on 786-0 renal, with SNB-78 CNS, in the assay with KM20L2 colon, in the assay with SK-MEL-28 melanoma, in the assay on OVCAR-8 ovarian and with SNB-75 CNS was more than 100 µM throughout. In addition, the TGI with HOP-92 NSCLC, in the assay with MOLT-4 leukemia and in the assay with IGROV1 ovarian was more than 100 µM in each case.
For the molecule `N#C/C(=C/c1ccc[nH]1)P(=O)(O)O`, the TGI with 786-0 renal, with SNB-78 CNS, in the assay with KM20L2 colon, with SK-MEL-28 melanoma, in the assay with OVCAR-8 ovarian and in the assay with SNB-75 CNS was more than 100 µM in each case. Further, the TGI with HOP-92 NSCLC and with MOLT-4 leukemia was more than 100 µM throughout.
As to `COC(=O)/C([Se]c1c(C)cc(C)cc1C)=C(\[Se]c1c(C)cc(C)cc1C)C(=O)OC`, the TGI with 786-0 renal, in the assay with SNB-78 CNS, in the assay with KM20L2 colon, with OVCAR-8 ovarian, in the assay on SNB-75 CNS and in the assay on HOP-92 NSCLC was more than 100 µM in each case. Also, the TGI in the assay with MOLT-4 leukemia and with IGROV1 ovarian was more than 100 µM throughout.
On to `Oc1ccccc1C=NCc1ccco1`, for which the TGI in the assay on 786-0 renal, with SNB-78 CNS, in the assay on KM20L2 colon, in the assay with SK-MEL-28 melanoma, with OVCAR-8 ovarian and in the assay with SNB-75 CNS was more than 100 µM each time. The TGI in the assay on MOLT-4 leukemia and in the assay on IGROV1 ovarian was more than 100 µM throughout.
With `CC(C)c1ccc(C2C3=C(N=C4SCC(=O)N42)C(=O)c2ccccc23)cc1` (stereo not given), the TGI with 786-0 renal, in the assay on KM20L2 colon, in the assay with SK-MEL-28 melanoma, with OVCAR-8 ovarian, with SNB-75 CNS and with HOP-92 NSCLC was more than 100 µM in each case. In addition, the TGI in the assay on MOLT-4 leukemia and with IGROV1 ovarian was more than 100 µM each time.
On to `C[S+](C)CCOC(=O)C(=[N+]=[N-])c1ccc([N+](=O)[O-])cc1`, for which the TGI with 786-0 renal, in the assay with SNB-78 CNS, in the assay on KM20L2 colon, in the assay with OVCAR-8 ovarian, in the assay with SNB-75 CNS and in the assay on MOLT-4 leukemia was more than 100 µM each time. This molecule registered a TGI in the assay on IGROV1 ovarian of more than 100 µM.
